Patent EP1834952A1, “Compound for promoting the growth of neural cells” (NatureWise Biotech & Medicals Corporation, priority 2006, dated 2007)

How the values were obtained:
Format in all cases: cell-based, Wistar rat
cortical neurons [1] = assay: Survival of cortical neurons, live cell count by MTT assay (Examples 2 and 3); conditions: 300 cells/mm^2; 5 days; versus DMSO control; FIG. 2
Experimental: Cells obtained from the suspension prepared in Example 1 were cultivated in 6-well plates coated with 30 µg/ml of poly-D-lysine (Sigma) at 300 cells/mm^2 and cultivated at 37°C, 5% CO2 and 95% relative humidity. The growth media contained compounds A, B, D, E, F, G, and H respectively and the growth media added with 5 µl of DMSO were used as control. The differentiated cells after cultivation were categorically called cortical neurons.
The experiments were repeated three times. After cultivating for 5 days, live cells were counted by a known cell-counting method (MTT assay) and the absorbance was read at 540 nm.
(§1) Cells obtained from the suspension prepared in Example 1 were cultivated at a density of 150 or 300 cells/mm^2 in 6-well plates coated with 30 µg/ml poly-D-lysine (Sigma) at 37°C, 5% CO2 and 95% relative humidity. The growth media contained compounds A, D, and G respectively and the growth media added with 5 µl of DMSO were used as control. The differentiated cells are categorically called cortical neurons.
The experiments were repeated three times. After cultivating for 5 days, the live cells were counted by a known cell-counting method (MTT assay) and the absorbance was read at 540 nm.

NSCs = assay: Continuous cultivation of NSCs for 30 days, morphology and later differentiation (Example 7)
Experimental: As in Example 1, the NSCs were cultivated continuously and the growth media were replaced every seven days. DMSO-added growth media were used as the negative control. After 30 days, 100 µl of the cell suspension was aspirated and diluted to 1 ml. 250 µl of the supernatant was aspirated and placed on the slides coated with 30 µg/ml poly-D-lysine (Sigma). The cell morphology was observed thereafter under a microscope.
Unlike the normal neural stem cells, the cells lose their propensity to aggregate and form spheres, and the cells become atrophic in the cultivating suspension. […] These cells were cultivated for another 3 days and the cells were stained with immunofluorescence the same as in Example 5.

neural stem cells = assay: Differentiation of NSCs from neurospheres, MAP-2 immunofluorescent staining (Examples 5 and 6)
Experimental: In the beginning of cultivating NSCs, either compound A or EGF was added into the growth media. The cells were cultivated for 3 days and the cells would aggregate to form neurospheres. One hundred µl of the cell suspension was aspirated and diluted to 1 ml. 250 µl of the supernatant which contained neurospheres was aspirated and placed on the cover slides coated with 30 µg/ml poly-D-lysine (Sigma). After all the cells had been attached onto the slides, the media was removed and replaced with the cultivating media containing compound A (FIG. 5A), EGF (FIG. 5C), or none of the growth factors (FIG. 5B, compound A in the beginning; FIG 5D, EGF in the beginning). The cells were cultivated for another 3 days at the same condition as described above so that the cells would differentiate into cortical neurons.
The cells were stained with a known immunofluorescent staining method. To stain the neurons, a neurological marker of MAP-2 (microtubule-associated protein 2) antibody was used as the primary antibody and a fluorescent material-labeled mouse immunoglobulin that identified primary antibody was used as the second antibody. After the primary antibody that had been bound onto the neurons was identified and bound by the secondary antibody, the neurons emit fluorescent light under the excitation of a specific light source.
The procedures were similar to Example 5. However, in the beginning of cultivating the neural stem cells, both compound D and EGF were added into the media. After all the cells had been attached onto the slides, the media were removed and replaced with the cultivating media containing compound D (FIG. 6B), EGF (FIG. 6C), none of the growth factors (FIG. 6D), or both compound D and EGF (FIG. 6A). The cells were cultivated for another 3 days and the cell morphology was observed thereafter by using immunofluorescent staining technique.

cortical neurons [2] = assay: Neurite length of cortical neurons cultivated at low density, by microscope (Example 4); conditions: 38 cells/mm^2, 5 days; for growth of neurons and neurites under microscope: in the control all neural cells are dead
Experimental: as §1, with “38 cells/ mm^2” for “150 or 300 cells/mm^2”, “A, B,” for “A,”
The experiments were repeated three times. After cultivating for 5 days, the cells were observed under microscope and the length of the neurites was measured.

SMILES	absorbance at 540 nm (live cells, MTT assay) (cortical neurons [1])	cell morphology of NSCs after 30 days (NSCs; media replaced every seven days, almost no surviving cells in DMSO control, FIG. 7B)	differentiation of 30-day neurospheres (immunofluorescence) (NSCs; then another 3 days on slides, FIG. 7C)	differentiation of NSCs (MAP-2 staining) (neural stem cells; supplemented in the beginning (3 days) and thereafter at seeding on slides (another 3 days), FIG. 5A/5C)	differentiation of NSCs (MAP-2 staining) (neural stem cells; supplemented in the beginning only, none thereafter, FIG. 5B/5D)	length of neurites, L1 (cortical neurons [2]; 2.5 µM)	length of neurites, L2 (cortical neurons [2]; 2.5 µM)	neurites extending out of each soma (cortical neurons [2]; 2.5 µM)	growth of neurons and neurites under microscope (cortical neurons [2]; 2.5 µM)	length of neurites, L1 (cortical neurons [2]; 5 µM)	neurites extending out of each soma (cortical neurons [2]; 5 µM)	growth of neurons and neurites under microscope (cortical neurons [2]; 5 µM)	differentiation of NSCs (MAP-2 staining) (neural stem cells; both compound D and EGF in the beginning, compound D thereafter, FIG. 6B)	length of neurites, L2 (cortical neurons [2]; 5 µM)
C/C(=C\Cc1c([C@@H]2CC(=O)c3c(O)cc(O)cc3O2)ccc(O)c1O)CCCC(C)(C)O [compound A]	best results	can maintain the characteristics of forming spherical clusters	differentiating normally into neurons with the continuous outgrowth of neurites	the cells will differentiate into neurons	the cells will differentiate into neurons	236 µm	161 µm	at least 3	continuous growth of the neurons and the extension of the neurites can be observed	–	–	–	–	–
C/C(=C\Cc1cc([C@@H]2CC(=O)c3c(O)cc(O)cc3O2)cc(O)c1O)CCCC(C)(C)O [compound B]	–	–	–	–	–	–	–	–	–	235 µm	at least 3	continuous growth of the neurons and the extension of the neurites can be observed	–	–
CC(C)=CCC/C(C)=C/Cc1c([C@@H]2CC(=O)c3c(O)cc(O)cc3O2)ccc(O)c1O [compound D]	best results	–	–	–	–	–	–	–	–	211 µm	at least 3	continuous growth of the neurons and the extension of the neurites can be observed	the cells will differentiate into neurons	–
CC(C)=CCC/C(C)=C/Cc1c(O)cc2c(c1O)C(=O)C[C@@H](c1ccc(O)c(O)c1CC=C(C)C)O2 [compound G]	best results	–	–	–	–	–	–	–	–	316 µm	at least 3	continuous growth of the neurons and the extension of the neurites can be observed	–	216 µm
